Assay results reported in PubChem BioAssay AID1259407 (Chemical Carcinogenesis Research Information System (CCRIS), 2018).
Calls of active or inactive are those of the source. How the calls were made is not given here.

System: CCRIS mutagenicity, Ames/micronucleus/aberration tests
Test: CCRIS mutagenicity studies
[1] = Test System: AMES SALMONELLA TYPHIMURIUM, Strain/Indicator: TA98, Metabolic Activation: NONE, Method: STANDARD PLATE
[2] = Test System: AMES SALMONELLA TYPHIMURIUM, Strain/Indicator: TA100, Metabolic Activation: NONE, Method: STANDARD PLATE
[3] = Test System: MOUSE LYMPHOMA, Strain/Indicator: L5178Y (TK+/TK-), Metabolic Activation: NONE, Method: SUSPENSION/PLATE
[4] = Test System: MOUSE LYMPHOMA, Strain/Indicator: L5178Y (TK+/TK-), Metabolic Activation: RAT, LIVER, S-9, AROCLOR 1254, Method: SUSPENSION/PLATE
[5] = Test System: AMES SALMONELLA TYPHIMURIUM, Strain/Indicator: TA98, Metabolic Activation: NONE, Method: PREINCUBATION
[6] = Test System: AMES SALMONELLA TYPHIMURIUM, Strain/Indicator: TA98, Metabolic Activation: RAT, LIVER, S-9, AROCLOR 1254 (10%), Method: PREINCUBATION
[7] = Test System: AMES SALMONELLA TYPHIMURIUM, Strain/Indicator: TA100, Metabolic Activation: NONE, Method: PREINCUBATION
[8] = Test System: AMES SALMONELLA TYPHIMURIUM, Strain/Indicator: TA100, Metabolic Activation: RAT, LIVER, S-9, AROCLOR 1254 (10%), Method: PREINCUBATION

With `N=C(N)c1cc2ccc(Br)cc2[nH]1` the mutagenic call [1] was “inactive; negative”, the mutagenic call (Test System: AMES SALMONELLA TYPHIMURIUM, Strain/Indicator: TA98, Metabolic Activation: RAT, LIVER, S-9, PHENOBARBITAL, Method: STANDARD PLATE) was “inactive; negative” and the mutagenic call [2] was “inactive; negative”. For the same molecule, the mutagenic call (Test System: AMES SALMONELLA TYPHIMURIUM, Strain/Indicator: TA100, Metabolic Activation: RAT, LIVER, S-9, PHENOBARBITAL, Method: STANDARD PLATE) was “inactive; negative”.

For `Nc1ccc(S(=O)(=O)Nc2nccs2)cc1`, the mutagenic call (Test System: AMES SALMONELLA TYPHIMURIUM, Strain/Indicator: TA98, Metabolic Activation: HAMSTER, LIVER, S-9, AROCLOR 1254, Method: STANDARD PLATE) was “inactive; negative”, the mutagenic call [1] was “inactive; negative” and the mutagenic call (Test System: AMES SALMONELLA TYPHIMURIUM, Strain/Indicator: TA98, Metabolic Activation: RAT, LIVER, S-9, AROCLOR 1254, Method: STANDARD PLATE) was “inactive; negative”. For the same molecule, the mutagenic call (Test System: AMES SALMONELLA TYPHIMURIUM, Strain/Indicator: TA100, Metabolic Activation: HAMSTER, LIVER, S-9, AROCLOR 1254, Method: STANDARD PLATE) was “inactive; negative”, the mutagenic call [2] was “inactive; negative” and the mutagenic call (Test System: AMES SALMONELLA TYPHIMURIUM, Strain/Indicator: TA100, Metabolic Activation: RAT, LIVER, S-9, AROCLOR 1254, Method: STANDARD PLATE) was “inactive; negative”. For the same molecule, the mutagenic call (Test System: AMES SALMONELLA TYPHIMURIUM, Strain/Indicator: TA1535, Metabolic Activation: HAMSTER, LIVER, S-9, AROCLOR 1254, Method: STANDARD PLATE) was “inactive; negative”, the mutagenic call (Test System: AMES SALMONELLA TYPHIMURIUM, Strain/Indicator: TA1535, Metabolic Activation: NONE, Method: STANDARD PLATE) was “inactive; negative” and the mutagenic call (Test System: AMES SALMONELLA TYPHIMURIUM, Strain/Indicator: TA1535, Metabolic Activation: RAT, LIVER, S-9, AROCLOR 1254, Method: STANDARD PLATE) was “inactive; negative”. For the same molecule, the mutagenic call (Test System: AMES SALMONELLA TYPHIMURIUM, Strain/Indicator: TA1537, Metabolic Activation: HAMSTER, LIVER, S-9, AROCLOR 1254, Method: STANDARD PLATE) was “inactive; negative”, the mutagenic call (Test System: AMES SALMONELLA TYPHIMURIUM, Strain/Indicator: TA1537, Metabolic Activation: NONE, Method: STANDARD PLATE) was “inactive; negative” and the mutagenic call (Test System: AMES SALMONELLA TYPHIMURIUM, Strain/Indicator: TA1537, Metabolic Activation: RAT, LIVER, S-9, AROCLOR 1254, Method: STANDARD PLATE) was “inactive; negative”. The mutagenic call (Test System: AMES SALMONELLA TYPHIMURIUM, Strain/Indicator: TA1538, Metabolic Activation: HAMSTER, LIVER, S-9, AROCLOR 1254, Method: STANDARD PLATE) was “inactive; negative”, the mutagenic call (Test System: AMES SALMONELLA TYPHIMURIUM, Strain/Indicator: TA1538, Metabolic Activation: NONE, Method: STANDARD PLATE) was “inactive; negative” and the mutagenic call (Test System: AMES SALMONELLA TYPHIMURIUM, Strain/Indicator: TA1538, Metabolic Activation: RAT, LIVER, S-9, AROCLOR 1254, Method: STANDARD PLATE) was “inactive; negative”. For the same molecule, the mutagenic call [3] was “inactive; negative. reevaluation of results: negative” and the mutagenic call [4] was “inactive; negative. reevaluation of results: negative”.

For `CC(=O)Nc1ccc(/C=N/n2nnc3c([nH]c4ccccc43)c2=O)cc1`, the mutagenic call (Test System: AMES SALMONELLA TYPHIMURIUM, Strain/Indicator: TA97, Metabolic Activation: NONE, Method: PREINCUBATION) was “active; positive”, the mutagenic call (Test System: AMES SALMONELLA TYPHIMURIUM, Strain/Indicator: TA97, Metabolic Activation: RAT, LIVER, S-9, AROCLOR 1254 (10%), Method: PREINCUBATION) was “active; positive” and the mutagenic call [5] was “active; positive”. The mutagenic call [6] was “active; positive”, the mutagenic call [7] was “active; positive” and the mutagenic call [8] was “active; positive”. For the same molecule, the mutagenic call (Test System: AMES SALMONELLA TYPHIMURIUM, Strain/Indicator: TA102, Metabolic Activation: NONE, Method: PREINCUBATION) was “inactive; negative” and the mutagenic call (Test System: AMES SALMONELLA TYPHIMURIUM, Strain/Indicator: TA102, Metabolic Activation: RAT, LIVER, S-9, AROCLOR 1254 (10%), Method: PREINCUBATION) was “inactive; negative”.

With `CC(C)CCCCCCCOC(=O)c1ccccc1C(=O)OCCCCCCCC(C)C` the mutagenic call (Test System: AMES SALMONELLA TYPHIMURIUM, Strain/Indicator: TA98, Metabolic Activation: HAMSTER, LIVER, S-9, AROCLOR 1254 (10%), Method: PREINCUBATION) was “inactive; negative”, the mutagenic call [5] was “inactive; negative” and the mutagenic call [6] was “inactive; negative”. For the same molecule, the mutagenic call (Test System: AMES SALMONELLA TYPHIMURIUM, Strain/Indicator: TA100, Metabolic Activation: HAMSTER, LIVER, S-9, AROCLOR 1254 (10%), Method: PREINCUBATION) was “inactive; negative”, the mutagenic call [7] was “inactive; negative” and the mutagenic call [8] was “inactive; negative”. The mutagenic call (Test System: AMES SALMONELLA TYPHIMURIUM, Strain/Indicator: TA1535, Metabolic Activation: HAMSTER, LIVER, S-9, AROCLOR 1254 (10%), Method: PREINCUBATION) was “inactive; negative”, the mutagenic call (Test System: AMES SALMONELLA TYPHIMURIUM, Strain/Indicator: TA1535, Metabolic Activation: NONE, Method: PREINCUBATION) was “inactive; negative” and the mutagenic call (Test System: AMES SALMONELLA TYPHIMURIUM, Strain/Indicator: TA1535, Metabolic Activation: RAT, LIVER, S-9, AROCLOR 1254 (10%), Method: PREINCUBATION) was “inactive; negative”. For the same molecule, the mutagenic call (Test System: AMES SALMONELLA TYPHIMURIUM, Strain/Indicator: TA1537, Metabolic Activation: HAMSTER, LIVER, S-9, AROCLOR 1254 (10%), Method: PREINCUBATION) was “inactive; negative”, the mutagenic call (Test System: AMES SALMONELLA TYPHIMURIUM, Strain/Indicator: TA1537, Metabolic Activation: NONE, Method: PREINCUBATION) was “inactive; negative” and the mutagenic call (Test System: AMES SALMONELLA TYPHIMURIUM, Strain/Indicator: TA1537, Metabolic Activation: RAT, LIVER, S-9, AROCLOR 1254 (10%), Method: PREINCUBATION) was “inactive; negative”. The mutagenic call [3] was “inactive; negative” and the mutagenic call (Test System: MOUSE LYMPHOMA, Strain/Indicator: L5178Y (TK+/TK-), Metabolic Activation: RAT LIVER S-9, Method: SUSPENSION/PLATE) was “inactive; negative”.

With `O=c1cccccc1O` the mutagenic call [3] was “active; positive. reevaluation of results: positive” and the mutagenic call [4] was “inactive; positive. reevaluation of results: negative”.
